Measurements as given in patent US20240287089A1, “Preparation and Uses of 7-Azaindenoisoquinolines” (Purdue Research Foundation, priority 0001, published 2024).
Values belong to the molecule of their own block, whether it stands above or below them.

Columns and labels:
[1] = biological target: 3′-TAMRA-labeled MycG4 DNA; test: Fluorescence binding assay; conditions: 20° C., 100 mM K+ buffer, pH 7.0; read-out: Apparent Binding Affinity Kd, app
[2] = system: RAJI lymphoma cells; test: MTS cell viability IC50 assay; format: cell-based; conditions: 72 h
Description: Cytotoxicity Results in Raji Non-Hodgkin's Lymphoma Cells. MTS experiments were then conducted to test the anti-proliferative effects of 7-aza-8,9-methylenedioxyindenoisoquinolines in Raji cells. Cells were incubated at 2-2000 nM of each drug for 72 h, and cell viabilities were quantified using the MTS assay. […] This potency trend generally correlated with the western blot results, in which G106 and G108 […] show weaker Myc downregulation.
(§1) MTS Cell Viability IC50 Assay. Drug solutions for MTS IC50 assays of suspension cell lines were made from DMSO stocks by serial-dilutions in 1×PBS (10010-031, Gibco). To set up treatments, drug solutions were plated in triplicates to 96-well tissue culture plates, to which cell-containing media was added to a total volume of 100 μL/well. 100%-viability controls were untreated cells. 2000 cells/well were plated for all suspension cell lines except 3000 cells/well for KMS-27 and 10000 cells/well for CHLA-32. Blanks were cell-free media. Drug treatments were maintained for 72 hr at 37° C. with 5% CO2. To quantify cells, CellTiter 96 AQueous MTS Reagent Powder (G1111, Promega) was dissolved and mixed with phenazine methosulfate (PMS, Sigma-Aldrich P9625) according to manufacturer's instructions. MTS/PMS mix ([…]) was added to treatment wells, 100%-viability control wells, and blank wells. Colors were developed at 37° C. with 5% CO2 for 4 h and absorbance at 490 nm was measured by BioTek Synergy 4 system. To obtain %-viability, A490 values were corrected by blank subtraction, normalized to 100%-viability control, and averaged. Average %-viabilities were plotted against drug dosages to obtain dose-response curves. […] For adherent cell lines, the MTS IC50 assays were conducted the same way as for suspension cell lines except for cell plating and drug treatment. For cell plating, 50 μL of 2000 cells were plated in triplicates to a 96-well tissue culture plate. Cells were allowed sufficient time to become adherent. Serial-diluted drug solutions were made the same way as in the MTS IC50 assays. To set up treatments, drug solutions were mixed with media to two-fold of the final concentrations, and 50 μL of such drug-media mix was then added to 50 μL of plated cells.

[3] = system: AMO-1; test: MTS GI50, Myc-dependent panel; format: cell-based; conditions: Homo sapiens, AMO1, 72 h
Description: (§2) Cytotoxicity Results in Myc-dependent Cancer Cell Lines.
as §1

[4] = system: ARD; test: MTS GI50, Myc-dependent panel; format: cell-based; conditions: 72 h
Description: as §2, §1

[5] = system: CCRF-CRM; test: MTS GI50, Myc-dependent panel; format: cell-based; conditions: 72 h
Description: as §2, §1

[6] = system: CHLA-32; test: MTS GI50, Myc-dependent panel; format: cell-based; conditions: 72 h
Description: as §2, §1

[7] = system: CHLA-99; test: MTS GI50, Myc-dependent panel; format: cell-based; conditions: 72 h
Description: as §2, §1

[8] = system: HL-60; test: MTS GI50, Myc-dependent panel; format: cell-based; conditions: Homo sapiens, HL-60, 72 h
Description: as §2, §1

[9] = system: K-562; test: MTS GI50, Myc-dependent panel; format: cell-based; conditions: Homo sapiens, K562, 72 h
Description: as §2, §1

[10] = system: KMS-27; test: MTS GI50, Myc-dependent panel; format: cell-based; conditions: KMS-27, 72 h
Description: as §2, §1

[11] = system: Kasumi-1; test: MTS GI50, Myc-dependent panel; format: cell-based; conditions: Homo sapiens, Kasumi 1, 72 h
Description: as §2, §1

[12] = system: L-363; test: MTS GI50, Myc-dependent panel; format: cell-based; conditions: Homo sapiens, L-363, 72 h
Description: as §2, §1

[13] = system: MCF-7; test: MTS GI50, Myc-dependent panel; format: cell-based; conditions: Homo sapiens, MCF7, 72 h
Description: as §2, §1

[14] = system: MDA-MB-231; test: MTS GI50, Myc-dependent panel; format: cell-based; conditions: Homo sapiens, MDA-MB-231, 72 h
Description: as §2, §1

[15] = system: MOLT-4; test: MTS GI50, Myc-dependent panel; format: cell-based; conditions: Homo sapiens, MOLT-4, 72 h
Description: as §2, §1

[16] = system: RD-ES; test: MTS GI50, Myc-dependent panel; format: cell-based; conditions: 72 h
Description: as §2, §1

[17] = system: RPMI-8226; test: MTS GI50, Myc-dependent panel; format: cell-based; conditions: Homo sapiens, RPMI-8226, 72 h
Description: as §2, §1

[18] = system: RS4;11; test: MTS GI50, Myc-dependent panel; format: cell-based; conditions: Homo sapiens, RS4-11, 72 h
Description: as §2, §1

[19] = system: SK-N-MC; test: MTS GI50, Myc-dependent panel; format: cell-based; conditions: Homo sapiens, 72 h
Description: as §2, §1

[20] = system: TC-106; test: MTS GI50, Myc-dependent panel; format: cell-based; conditions: 72 h
Description: as §2, §1

[21] = system: TC-32; test: MTS GI50, Myc-dependent panel; format: cell-based; conditions: Homo sapiens, TC-32, 72 h
Description: as §2, §1

[22] = system: TC-71; test: MTS GI50, Myc-dependent panel; format: cell-based; conditions: TC-71, 72 h
Description: as §2, §1

[23] = system: THP-1; test: MTS GI50, Myc-dependent panel; format: cell-based; conditions: Homo sapiens, THP-1, 72 h
Description: as §2, §1

[24] = system: DU-145 (Prostate); test: NCI-60 cytotoxicity assay; format: cell-based, human; conditions: Homo sapiens; DU-145 prostate; 48 h, sulforhodamine B; read-out: Comparative Cytotoxicity GI50, Prostate DU-145
Description: (§3) The antiproliferative activities of the indenoisquinoline compounds are determined in the NCI-60 cancer cell lines of the National Cancer Institute Developmental Therapeutics Program (NCI-DTP). […] Cancer cells are incubated with the test compounds at five concentrations ranging from 100 μM to 10 nM for 48 h. After the treated cancer cells are stained with sulforhodamine B dye, the percentage growth is plotted as a function of the common logarithm of the tested compound concentration. […] The approximate average of GI50 values across the entire panel of NCI-60 cancer cell lines for each compound is recorded as the MGM value.
(§4) NCI-60 Cytotoxicity Assay. Compounds were submitted to the National Cancer Institute Developmental Therapeutic Program to determine their growth-inhibitory potentials in NCI-60 cell lines. All compounds satisfied the pre-screening proceeded into the 5-dose cell viability assay, in which cells were treated for 48 h at 5 dosages ranging from 100 μM to 10 nM.

[25] = system: HCT-116 (Colon); test: NCI-60 cytotoxicity assay; format: cell-based, human; conditions: Homo sapiens; HCT-116 colon; 48 h, sulforhodamine B; read-out: Comparative Cytotoxicity GI50, Colon HCT-116
Description: as §3, §4

[26] = system: HOP-62 (Lung); test: NCI-60 cytotoxicity assay; format: cell-based, human; conditions: Homo sapiens; HOP-62 lung; 48 h, sulforhodamine B; read-out: Comparative Cytotoxicity GI50, Lung HOP-62
Description: as §3, §4

[27] = system: MCF7 (Breast); test: NCI-60 cytotoxicity assay; format: cell-based, human; conditions: Homo sapiens; MCF7 breast; 48 h, sulforhodamine B; read-out: Comparative Cytotoxicity GI50, Breast MCE7
Description: as §3, §4

[28] = system: OVCAR-3 (Ovarian); test: NCI-60 cytotoxicity assay; format: cell-based, human; conditions: Homo sapiens; OVCAR-3 ovarian; 48 h, sulforhodamine B; read-out: Comparative Cytotoxicity GI50, Ovarian OVCAR-3
Description: as §3, §4

[29] = system: SN12C (Renal); test: NCI-60 cytotoxicity assay; format: cell-based, human; conditions: Homo sapiens; SN12C renal; 48 h, sulforhodamine B; read-out: Comparative Cytotoxicity GI50, Renal SN12C
Description: as §3, §4

[30] = system: UACC-62 (Melanoma); test: NCI-60 cytotoxicity assay; format: cell-based, human; conditions: Homo sapiens; UACC-62 melanoma; 48 h, sulforhodamine B; read-out: Comparative Cytotoxicity GI50, Melanoma UACC-62
Description: as §3, §4

[31] = system: SF-539 (CNS); test: NCI-60 cytotoxicity assay; format: cell-based; conditions: Homo sapiens; SF-539 CNS; 48 h, sulforhodamine B; read-out: Comparative Cytotoxicity GI50, CNS SF-539
Description: as §3, §4

[32] = system: NCI-60 cancer cell lines; test: NCI-60 cytotoxicity assay, MGM; format: cell-based; conditions: Homo sapiens; entire panel of NCI-60 cancer cell lines; read-out: MGM (approximate average of GI50 values across the NCI-60 panel)
Description: as §3, §4

SMILES: COc1cc2c3c(n(CCCNCCO)c(=O)c2cc1OC)-c1cc2c(cc1C3=O)OCO2 [LMP517]
Kd [1]: 109 nM | IC50 ([2]; Homo sapiens, Raji): 53 nM | GI50 [3]: 69 nM | GI50 [4]: 27 nM | GI50 [5]: 11 nM | GI50 [6]: 37 nM | GI50 [7]: 44 nM | GI50 [8]: 137 nM | GI50 [9]: 74 nM | GI50 [10]: 44 nM | GI50 [11]: 148 nM | GI50 [12]: 42 nM | GI50 [13]: 418 nM | GI50 [14]: 319 nM | GI50 [15]: 3 nM | GI50 [16]: 9 nM | GI50 [17]: 82 nM | GI50 [18]: 7 nM | GI50 [19]: 62 nM | GI50 [20]: 51 nM | GI50 [21]: 12 nM | GI50 [22]: 58 nM | GI50 [23]: 93 nM

Kd [1]: 55 nM | IC50 ([2]; RAJI): 1980 nM
SMILES: COc1cc2c3c(n(CCCN4CCC[C@H]4C(N)=O)c(=O)c2cc1OC)-c1nc2c(cc1C3=O)OCO2 [G106, (S)-1-(3-(2,3-dimethoxy-5,12-dioxo-5,12-dihydro-6H-[1,3]dioxolo [4″,5″:5′,6′]pyrido[3′,2′:4,5]cyclopenta[1,2-c]isoquinolin-6-yl)propyl)pyrrolidine-2-carboxamide]

SMILES: COc1cc2c3c(n(CCCNCC4CC4)c(=O)c2cc1OC)-c1cc2c(cc1C3=O)OCO2 [A1]
GI50 [24]: 760 nM | GI50 [25]: 1140 nM | GI50 [26]: 350 nM | GI50 [27]: 95 nM | GI50 [28]: 1420 nM | GI50 [29]: 1370 nM | GI50 [30]: 2860 nM | GI50 [31]: 760 nM | GI50 [32]: 1320 nM

SMILES: COc1cnc2c(c1)C(=O)c1c-2n(CCCNC(C)C)c(=O)c2cc(OC)c(OC)cc12 [A11]
GI50 [24]: 1270 nM | GI50 [25]: 1020 nM | GI50 [26]: 700 nM | GI50 [27]: 220 nM | GI50 [28]: 8990 nM | GI50 [29]: 4190 nM | GI50 [30]: 2430 nM | GI50 [31]: 1360 nM | GI50 [32]: 2340 nM

SMILES: COc1cc2c3c(n(CCCNC4CCC4)c(=O)c2cc1OC)-c1cc2c(cc1C3=O)OCO2 [A2]
GI50 [24]: 790 nM | GI50 [25]: 900 nM | GI50 [26]: 220 nM | GI50 [27]: 57 nM | GI50 [28]: 1380 nM | GI50 [29]: 1440 nM | GI50 [30]: 1400 nM | GI50 [31]: 1050 nM | GI50 [32]: 870 nM
